Molecules are shown by their SMILES.

The assay concerns the target PD-L1 (Homo sapiens, UniProt Q9NZQ7). The experiment in a line: HTRF PD-1/PD-L1 binding assay.

PD-L1, sequence (Q15116 25-288): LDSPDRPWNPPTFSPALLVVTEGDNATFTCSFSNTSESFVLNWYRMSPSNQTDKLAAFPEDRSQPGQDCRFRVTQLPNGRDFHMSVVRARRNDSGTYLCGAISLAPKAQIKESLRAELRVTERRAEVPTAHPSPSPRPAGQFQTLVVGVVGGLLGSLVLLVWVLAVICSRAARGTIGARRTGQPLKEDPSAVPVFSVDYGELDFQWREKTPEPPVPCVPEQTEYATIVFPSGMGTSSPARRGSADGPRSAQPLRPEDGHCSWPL
PD-L1, sequence (Q9NZQ7 19-290): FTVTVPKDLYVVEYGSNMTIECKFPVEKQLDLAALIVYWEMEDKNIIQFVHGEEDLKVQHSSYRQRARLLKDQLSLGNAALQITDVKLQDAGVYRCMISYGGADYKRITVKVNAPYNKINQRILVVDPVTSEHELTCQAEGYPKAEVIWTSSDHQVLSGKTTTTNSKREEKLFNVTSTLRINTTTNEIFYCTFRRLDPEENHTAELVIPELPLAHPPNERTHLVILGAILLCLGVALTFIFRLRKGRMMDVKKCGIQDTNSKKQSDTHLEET

As for `Cc1c(COc2ccc(CN3CCN(C)CC3)c(OCc3cn(-c4cccc(C#N)c4)nn3)c2)cccc1-c1ccccc1` [8a, 3-(4-((5-((2-Methylbiphenyl-3-yl)methoxy)-2-((4-methylpiperazin-1yl)methyl)phenoxy)methyl)-1H-1,2,3-triazol-1-yl)benzonitrile], the half-inhibitory concentration (IC50) was found to be 14.1 µM. Then `Cc1c(COc2ccc(CN3CCNCC3)c(OCc3cn(-c4cccc(C#N)c4)nn3)c2)cccc1-c1ccccc1` [compound 7, 3-(4-((5-((2-Methylbiphenyl-3-yl)methoxy)-2-(piperazin-1-ylmethyl)phenoxy)methyl)-1H-1,2,3-triazol-1-yl)benzonitrile], with 8.52 µM.
